Experimental data from BigSolDB 2.1.

Nc1cccc2c1CN(C1CCC(=O)NC1=O)C2=O (stereo not given)
solubility (mole fraction)
Settings	273.15 K	278.15 K	283.15 K	288.15 K	293.15 K	298.15 K	303.15 K	308.15 K	313.15 K	318.15 K
in acetonitrile	0.000444	0.000458	0.000476	0.000496	0.000516	0.000536	0.000558	0.000579	0.000601	0.000623
in ethyl acetate	8e-05	9.2e-05	0.000105	0.00012	0.000136	0.000152	0.000168	0.000186	0.000206	0.000226
in isopropanol	2.5e-05	3.2e-05	4.1e-05	5.2e-05	6.6e-05	8e-05	9.5e-05	0.000114	0.000136	0.00016
in methanol	0.00019	0.000204	0.00022	0.000237	0.000256	0.000276	0.000301	0.000326	0.000351	0.000383
